The source of these data is patent US6436959B1 (priority 1998, dated 2002).

Molecules are shown by their SMILES.

One test concerns the target T1, opioid delta receptor (Homo sapiens, UniProt P41143).
T1 construct: purchased Receptor Biology, Baltimore, Md; host or cells: CHO cells (recombinant, membranes)
The test is classed as binding.

For a further test, the target named is T2, δ-opioid receptor (Rattus norvegicus, UniProt P33533).
T2 construct: the forebrains are homogenized in Tris buffer in a Teflon®-glass homogenizer; from tissue; host or cells: forebrain of male Wistar rats, particulate (membrane) preparation
As to conditions: read-out: Ki in binding to the δ-opioid receptor.

For test [1], the system named is acetylcholine bromide-induced abdominal constriction response. As to the kind of experiment: Mouse Acetylcholine Bromide-Induced Abdominal Constriction Assay. The test is classed as in vivo. As to conditions: p.o., 30 minutes before i.p. 5.5 mg/kg acetylcholine bromide, % inhibition of constriction response (% analgesia). As for the experimental part: C) Mouse Acetylcholine Bromide-Induced Abdominal Constriction Assay
The mouse acetylcholine-induced abdominal constiction assay, as described by Collier et al. in Brit. J. Pharmacol. Chem. Ther., 32: 295-310, 1968, with minor modifications was used to assess analgesic potency of the compounds of formula (I). The test drugs or appropriate vehicles were administered orally (p.o.) and 30 minutes later the animal received an intraperitoneal (i.p.) injection of 5.5 mg/kg acetylcholine bromide (Matheson, Coleman and Bell, East Rutherford, N.J.). The mice were then placed in groups of three into glass bell jars and observed for a ten minute observation period for the occurrence of an abdominal constriction response (defined as a wave of constriction and elongation passing caudally along the abdominal wall, accompanied by a twisting of the trunk and followed by extension of the hind limbs). The percent inhibition of this response to a nociceptive stimulus (equated to % analgesia) was calculated as follows: The % inhibition of response, i.e., % analgesia is equal to the difference between the No. of control animal responses and the No. of drug-treated animal responses times 100 divided by the No. of control animals responding.

In a further test the target is μ-opioid receptor (Rattus norvegicus, UniProt P33535). Particulars: read-out: Ki in binding to the μ-opioid receptor; rat forebrain preparation, [3H]DAMGO, 25° C.
Sequence of μ-opioid receptor (P33535 whole entry): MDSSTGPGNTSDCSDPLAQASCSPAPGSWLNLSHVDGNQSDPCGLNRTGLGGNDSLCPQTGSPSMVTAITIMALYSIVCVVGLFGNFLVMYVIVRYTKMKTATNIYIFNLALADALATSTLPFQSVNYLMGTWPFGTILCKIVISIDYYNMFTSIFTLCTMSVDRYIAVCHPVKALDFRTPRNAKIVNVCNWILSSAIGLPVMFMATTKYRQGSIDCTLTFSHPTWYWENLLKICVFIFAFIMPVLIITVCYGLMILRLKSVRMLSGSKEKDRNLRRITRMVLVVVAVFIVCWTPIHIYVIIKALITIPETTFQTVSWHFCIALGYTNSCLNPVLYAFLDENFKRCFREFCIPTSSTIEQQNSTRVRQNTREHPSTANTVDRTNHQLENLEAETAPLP

T1 sequence (P41143 whole entry): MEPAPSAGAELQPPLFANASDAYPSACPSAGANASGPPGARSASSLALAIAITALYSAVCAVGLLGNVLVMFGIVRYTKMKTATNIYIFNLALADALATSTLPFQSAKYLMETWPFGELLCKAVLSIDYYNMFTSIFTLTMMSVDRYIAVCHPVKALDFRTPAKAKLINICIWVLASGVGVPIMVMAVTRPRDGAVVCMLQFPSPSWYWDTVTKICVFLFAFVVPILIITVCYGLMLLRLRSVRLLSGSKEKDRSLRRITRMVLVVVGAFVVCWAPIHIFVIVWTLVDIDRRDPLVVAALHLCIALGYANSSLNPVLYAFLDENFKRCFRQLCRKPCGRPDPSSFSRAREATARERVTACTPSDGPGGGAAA
T2 sequence (P33533 whole entry): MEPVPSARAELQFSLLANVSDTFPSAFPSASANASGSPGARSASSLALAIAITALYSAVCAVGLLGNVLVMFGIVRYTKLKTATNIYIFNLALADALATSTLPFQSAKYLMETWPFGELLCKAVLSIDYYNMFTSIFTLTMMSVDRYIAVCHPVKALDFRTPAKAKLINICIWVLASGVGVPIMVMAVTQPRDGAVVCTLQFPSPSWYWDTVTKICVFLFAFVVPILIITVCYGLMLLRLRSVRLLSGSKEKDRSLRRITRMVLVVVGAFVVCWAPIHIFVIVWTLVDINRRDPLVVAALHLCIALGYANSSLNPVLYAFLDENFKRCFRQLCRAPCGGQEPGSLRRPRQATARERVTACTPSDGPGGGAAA

With `CCCN1CCC(N(c2ccccc2)c2cccc(C(=O)N(C)c3ccccc3)c2)CC1.O=C(O)/C=C/C(=O)O` [C4, N-Methyl-N-phenyl-3-[phenyl(1-propylpiperidin-4-yl)amino]benzamide Fumarate[1:1.4]], the “% I @ 25 μM” value on opioid delta receptor turned out to be 41%. Also, the Ki (in general, a measure of affinity in units of concentration, obtained from inhibition or displacement) at δ-opioid receptor came to 25 nM; on μ-opioid receptor it was 153 nM. The ED50 (commonly the midpoint of the dose-response relation) in test [1] amounted to 4.2 µmol/kg.
